Data published in ChEMBL document CHEMBL5036330, “Discovery of 8,9-seco-ent-Kaurane Diterpenoids as Potential Leads for the Treatment of Triple-Negative Breast Cancer” (J Med Chem, 2021).
Activity calls are given as the source filed them. No cut-off for these calls is given here.

Legend:
L02 = assay: Cytotoxicity against human L02 cells assessed as reduction in cell viability incubated for 96 hrs by MTT method; type: cell-based; details: L02, 96 h
MDA-MB-231 [1] = assay: Induction of apoptosis in human MDA-MB-231 cells assessed as early apoptotic cells at 1 uM measured after 24 hrs by Annexin V/Propidium iodide stain based Flow cytometry (reference value: 3.34%); type: functional
MDA-MB-231 [2] = assay: Induction of apoptosis in human MDA-MB-231 cells assessed as late apoptotic cells at 1 uM measured after 24 hrs by Annexin V/Propidium iodide stain based Flow cytometry (reference value: 2.78%); type: functional
MDA-MB-468 [3] = assay: Induction of apoptosis in human MDA-MB-468 cells assessed as early apoptotic cells at 2 uM measured after 24 hrs by Annexin V/Propidium iodide stain based Flow cytometry (reference value: 7.98%); type: functional
MDA-MB-231 [4] = assay: Induction of cell cycle arrest in human MDA-MB-231 cells assessed as accumulation of cells at G1 phase at 1 uM measured after 24 hrs by flow cytometry (reference value: 47.7%); type: functional
MDA-MB-231 [5] = assay: Induction of cell cycle arrest in human MDA-MB-231 cells assessed as accumulation of cells at S phase at 1 uM measured after 24 hrs by flow cytometry (reference value: 32.2%); type: functional
MDA-MB-231 [6] = assay: Induction of cell cycle arrest in human MDA-MB-231 cells assessed as accumulation of cells at G2 phase at 2 uM measured after 24 hrs by flow cytometry (reference value: 20.2%); type: functional
MDA-MB-231 [7] = assay: Induction of cell cycle arrest in human MDA-MB-231 cells assessed as accumulation of cells at G2 phase at 5 uM measured after 24 hrs by flow cytometry (reference value: 20.2%); type: functional
MDA-MB-468 [8] = assay: Induction of cell cycle arrest in human MDA-MB-468 cells assessed as accumulation of cells at G1 phase at 1 uM measured after 24 hrs by flow cytometry (reference value: 26.6%); type: functional
MDA-MB-231 [9] = assay: Induction of mitochondrial depolarization in human MDA-MB-231 cells assessed as monomers at 1 uM in dark by JC10 staining based fluorescence microscopy (reference value: 5.6%); type: functional
MDA-MB-231 [10] = assay: Induction of mitochondrial depolarization in human MDA-MB-231 cells assessed as aggregates at 2 uM in dark by JC10 staining based fluorescence microscopy (reference value: 94.4%); type: functional
MDA-MB-468 [11] = assay: Induction of mitochondrial depolarization in human MDA-MB-468 cells assessed as aggregates at 1 uM in dark by JC10 staining based fluorescence microscopy (reference value: 91.6%); type: functional
MDA-MB-468 [12] = assay: Induction of mitochondrial depolarization in human MDA-MB-468 cells assessed as aggregates at 2 uM in dark by JC10 staining based fluorescence microscopy (reference value: 91.6%); type: functional
MDA-MB-231 [13] = assay: Induction of apoptosis in human MDA-MB-231 cells assessed as increase in cleaved PARP at 1 to 5 uM measured after 24 hrs by Western blot analysis; type: functional, cell-based; details: dose 1-5 µM
MDA-MB-468 [14] = assay: Induction of apoptosis in human MDA-MB-468 cells assessed as increase in cleaved PARP at 1 to 5 uM measured after 24 hrs by Western blot analysis; type: functional, cell-based; details: dose 1-5 µM
MDA-MB-231 [15] = assay: Induction of autophagy in human MDA-MB-231 cells assessed as increase in ATG7 expression at 1 to 5 uM incubated for 24 hrs by Western blot analysis; type: functional, cell-based; details: dose 1-5 µM
MDA-MB-231 [16] = assay: Induction of autophagy in human MDA-MB-231 cells assessed as elimination of p62 at 1 to 5 uM incubated for 24 hrs by Western blot analysis; type: functional, cell-based; details: dose 1-5 µM
MDA-MB-468 [17] = assay: Induction of autophagy in human MDA-MB-468 cells assessed as increase in ATG5 expression at 1 to 5 uM incubated for 24 hrs by Western blot analysis; type: functional, cell-based; details: dose 1-5 µM
MDA-MB-468 [18] = assay: Induction of autophagy in human MDA-MB-468 cells assessed as increase in LC3-II expression at 1 to 5 uM incubated for 24 hrs by Western blot analysis; type: functional, cell-based; details: dose 1-5 µM
MDA-MB-231 [19] = assay: Antiinvasive activity against human MDA-MB-231 cells measured upto 72 hrs by transwell invasion assay relative to control; type: functional, cell-based; details: dose 0.1-0.2 µM, time hrs <=72
[20] = target: Serine/threonine-protein kinase mTOR (Homo sapiens) (UniProt P42345); assay: Inhibition of mTOR phosphorylation in human MDA-MB-468 cells measured after 24 hrs by Western blot analysis; type: cell-based; details: dose 1-5 µM
MDA-MB-231 [21] = assay: Effect on mTOR expression in human MDA-MB-231 cells measured at 1 to 5 uM after 24 hrs by Western blot analysis; type: functional, cell-based; details: dose 1-5 µM
MDA-MB-468 [22] = assay: Effect on mTOR expression in human MDA-MB-468 cells measured at 1 to 5 uM after 24 hrs by Western blot analysis; type: functional, cell-based; details: dose 1-5 µM
[23] = target: RAC-alpha serine/threonine-protein kinase (Homo sapiens) (UniProt P31749); assay: Binding affinity to Akt1 in human MDA-MB-231 cells assessed as shifted melting curve at 2 uM by CETSA assay; type: cell-based
RAC-alpha serine/threonine-protein kinase (Homo sapiens), sequence (P31749 whole entry): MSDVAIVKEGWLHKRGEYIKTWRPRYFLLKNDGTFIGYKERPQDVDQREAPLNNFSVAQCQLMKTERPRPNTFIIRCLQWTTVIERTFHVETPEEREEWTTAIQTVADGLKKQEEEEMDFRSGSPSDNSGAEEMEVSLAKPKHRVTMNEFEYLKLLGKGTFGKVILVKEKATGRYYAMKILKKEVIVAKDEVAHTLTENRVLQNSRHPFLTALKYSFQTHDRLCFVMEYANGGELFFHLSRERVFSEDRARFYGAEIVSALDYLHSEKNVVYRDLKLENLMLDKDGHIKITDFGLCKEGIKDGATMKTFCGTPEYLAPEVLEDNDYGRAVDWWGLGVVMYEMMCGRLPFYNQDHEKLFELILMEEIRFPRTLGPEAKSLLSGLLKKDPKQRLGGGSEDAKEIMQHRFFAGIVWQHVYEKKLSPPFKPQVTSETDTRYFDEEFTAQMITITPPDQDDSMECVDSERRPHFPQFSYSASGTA

[24] = Toxicity in NOD/SCID mouse assessed as change in body weight at 5 to 10 mg/kg, ip treated for 33 days; type: organism-based; details: in vivo, 792 h, dose 5-10 mg/kg, time 33 day
[25] = Toxicity in NOD/SCID mouse assessed as cytotoxicity in kidney at 10 mg/kg, ip treated for 33 days by H&E staining analysis; type: organism-based; details: in vivo, 792 h, time 33 day
MDA-MB-231 [26] = assay: Antitumor activity against human MDA-MB-231 cells xenografted in NOD/SCID mouse assessed as decrease in Ki67 expression in tumor tissue at 5 to 10 mg/kg, ip treated for 33 days by immunohistochemical analysis; type: functional, organism-based; details: dose 5-10 mg/kg, time 33.0 day
MDA-MB-468 [27] = assay: Antitumor activity against human MDA-MB-468 cells xenografted in NOD/SCID mouse assessed as decrease in Ki67 expression in tumor tissue at 5 to 10 mg/kg, ip treated for 33 days by immunohistochemical analysis; type: functional, organism-based; details: dose 5-10 mg/kg, time 33.0 day
MDA-MB-231 [28] = assay: Antitumor activity against human MDA-MB-231 cells xenografted in NOD/SCID mouse assessed as decrease in CD31 expression in tumor tissue at 5 to 10 mg/kg, ip treated for 33 days by immunohistochemical analysis; type: functional, organism-based; details: dose 5-10 mg/kg, time 33.0 day
MDA-MB-468 [29] = assay: Antitumor activity against human MDA-MB-468 cells xenografted in NOD/SCID mouse assessed as decrease in CD31 expression in tumor tissue at 5 to 10 mg/kg, ip treated for 33 days by immunohistochemical analysis; type: functional, organism-based; details: dose 5-10 mg/kg, time 33.0 day
MDA-MB-231 [30] = assay: Antitumor activity against human MDA-MB-231 cells xenografted in NOD/SCID mouse assessed as increase in TUNEL expression in tumor tissue at 5 to 10 mg/kg, ip treated for 33 days by immunohistochemical analysis; type: functional, organism-based; details: dose 5-10 mg/kg, time 33.0 day
MDA-MB-231 [31] = assay: Antitumor activity against human MDA-MB-231 cells xenografted in NOD/SCID mouse assessed as increase in LC3B expression in tumor tissue at 5 to 10 mg/kg, ip treated for 33 days by immunohistochemical analysis; type: functional, organism-based; details: dose 5-10 mg/kg, time 33.0 day
[32] = Selectivity index, ratio of IC50 for human MCF-10A cells to IC50 for human MBA-MB-231 cells; type: functional
[33] = Selectivity index, ratio of IC50 for human LO2 cells to IC50 for human MBA-MB-231 cells; type: functional

`C=C1C(=O)C2=C[C@H]1CCC(=O)[C@]1(C)[C@H](O)CCC(C)(C)[C@H]1C[C@H]2O` gave an IC50 (L02) of over 5 µM, an Activity (MDA-MB-231 [1]) of 6.59% and an Activity (MDA-MB-231 [2]) of 11.2%. For the same compound, the Activity (MDA-MB-468 [3]) was 35.5%, the Activity (MDA-MB-231 [4]) was 33.7% and the Activity (MDA-MB-231 [5]) was 37%. For the same compound, the Activity (MDA-MB-231 [6]) was 31.7%, the Activity (MDA-MB-231 [7]) was 37.4% and the Activity (MDA-MB-468 [8]) was 14.3%. The Activity (MDA-MB-231 [9]) was 18.9%, the Activity (MDA-MB-231 [10]) was 56.9% and the Activity (MDA-MB-468 [11]) was 61.6%. For the same compound, the Activity (MDA-MB-468 [12]) was 21.5%, the Activity (MDA-MB-231 [13]) was “Active” and the Activity (MDA-MB-468 [14]) was “Active”. For the same compound, the Activity (MDA-MB-231 [15]) was “Active”, the Activity (MDA-MB-231 [16]) was “Active” and the Activity (MDA-MB-468 [17]) was “Active”. The Activity (MDA-MB-468 [18]) was “Active”, the Activity (MDA-MB-231 [19]) was “Dose-Dependent Effect” and the inhibition [20] was “Active”. For the same compound, the Activity (MDA-MB-231 [21]) was “inactive”, the Activity (MDA-MB-468 [22]) was “inactive” and the Activity [23] was “Active”. The Activity [24] was “Non-Toxic”, the Activity [25] was “Non-Toxic” and the Activity (MDA-MB-231 [26]) was “Active”. For the same compound, the Activity (MDA-MB-468 [27]) was “Active”, the Activity (MDA-MB-231 [28]) was “Active” and the Activity (MDA-MB-468 [29]) was “Active”. For the same compound, the Activity (MDA-MB-231 [30]) was “Active”, the Activity (MDA-MB-231 [31]) was “Active” and the “Selectivity Index” value [32] was 14. The “Selectivity Index” value [33] was over 66.7.
